The values that follow come from patent US7186825B2, “Conformationally restricted polyamine analogs as disease therapies” (Cellgate, Inc., priority 1999, dated 2007).

SMILES strings stand for the structures. pEC50, pIC50: −log10 of the molar value. Like-named read-outs stand apart in the source and are kept apart here. Some results are limits rather than exact numbers.

What all share (format): cell-based
In assay [1] the test system is human breast cancer cells MCF7. Put plainly: MTT assay, survival/growth of cultured human breast cancer cells MCF7. As to conditions: for pEC50: figure legends, survival of cultured MCF7 cells, MTT, six days after drug treatment, read-out: ED50 (the source's name); for pIC50: read-out: concentration needed for 50% growth inhibition (ID50), Table 3, MCF7. As for the experimental part: (§1) As shown in Table 3 and FIGS. 1–32, several novel conformationally restricted polyamine analogs were tested for anti-proliferative properties against cancer cells.
(§2) Human breast cancer cell line MCF7 was grown in Richter's Improved Modified Eagle's Medium supplemented with 10% fetal bovine serum (FBS) and 2.2 g/L sodium bicarbonate. Human brain tumor cell line U251 MG-NCI was grown in Dulbecco's Modified Eagle's Medium supplemented with 10% FBS. Human lung cancer cell line A549 was grown in Ham's F-12K medium (Cellgro, Mediatech, Inc., VA), supplemented with 10% FBS and 2 mM L-glutamine. Human colon cancer cell line HT29 was cultured in McCoy's 5A medium (Gibco, BRL, Gaithersburg, Md.) supplemented with 10% FBS. Human prostate cancer cell lines PC-3, LNCAP and DuPro were grown in RPMI 1640 Medium (Cellgro, Mediatech, Inc., VA) supplemented with 10% FBS. Another human prostate cancer cell line DU145 was grown in Dulbecco's Modified Eagle's Medium (Gibco, BRL, Gaithersburg, Md.) supplemented with 5% FBS. The A549, MCF7, PC3, LNCAP and DuPro cell lines were cultured in 100 units/mL penicillin and 100 μg/mL streptomycin. HT29 and U251MG cell lines were grown in 50 μg/mL gentamycin (Gibco, BRL, Gaithersburg, Md.). DU145 cell line was maintained in 1% antibitic-antimycotic solution (Sigma, St. Louis, Mo.). The cell cultures were maintained at 37° C. in 5% CO2/95% humidified air. DuPro cells were obtained from M. Eileen Dolan, University of Chicago. All other cells are available from the American Type Culture Collection, Rockville, Md.
(§3) A conventional MTT assay was used to evaluate percent cell survival. Exponentially growing monolayer cells were plated in 96-well plates at a density of 500 cells per well and allowed to grow for 24 hours. Serial dilutions of the drugs were added to the wells. Six days after drug treatment, 25 μl of MTT solution (5 mg/ml) was added to each well and incubated for 4 hours at 37° C. Then 100 μl of lysis buffer (20% sodium dodecyl sulfate, 50% DMF, and 0.8% acetic acid, pH 4.7) was added to each well and incubated for an additional 22 hours. A microplate reader (“EMAX”-brand, Molecular Devices, Sunnyvale, Calif.) set at 570 nm was used to determine the optical density of the cultures. Results are expressed as a ratio of the optical density in drug-treated wells to the optical density in wells treated with vehicle only.
(In general: Tetrazolium dyes change colour on reduction, which living cells bring about.)

Assay [2] relates to human prostate cancer cells DUPRO. Put plainly: MTT assay, survival/growth of cultured human prostate cancer cells DUPRO. As to conditions: for pEC50: figure legends, survival of cultured DUPRO cells, MTT, six days after drug treatment, read-out: ED50 (the source's name); for pIC50: read-out: concentration needed for 50% growth inhibition (ID50), Table 3, DUPRO. As for the experimental part:
as §2, §3
(§4) Using the protocols of Example 2, the porphyrin-polyamine conjugates were tested for activity in vitro in various cancer cell lines.

The subject of assay [3] is human colon cancer cells HT29. Nature of the assay: MTT assay, survival/growth of cultured human colon cancer cells HT29. As to conditions: for pEC50: figure legends, survival of cultured HT29 cells, MTT, six days after drug treatment, read-out: ED50 (the source's name); for pIC50: read-out: concentration needed for 50% growth inhibition (ID50), Table 3, HT-29. How it is done: as §1, §2, §3

The test system of assay [4] is human lung cancer cells A549. Put plainly: MTT assay, survival/growth of cultured human lung cancer cells A549. As to conditions: for pEC50: figure legends, survival of cultured A549 cells, MTT, six days after drug treatment, read-out: ED50 (the source's name); for pIC50: read-out: concentration needed for 50% growth inhibition (ID50). How it is done: as §1, §2, §3

For assay [5], the system named is human brain tumor cells U251 MG NCI. Put plainly: MTT assay, survival/growth of cultured human brain tumor cells U251 MG NCI. The conditions noted are these: for pEC50: figure legends, survival of cultured U251 MG NCI cells, MTT, six days after drug treatment, read-out: ED50 (the source's name); for pIC50: Table 3, U251MG. How it is done: as §2, §3
For assay [6], the system named is human prostate cancer cells DU145. Put plainly: MTT assay, survival/growth of cultured human prostate cancer cells DU145. The conditions noted are these: for pEC50: figure legends, survival of cultured DU145 cells, MTT, six days after drug treatment, read-out: ED50 (the source's name); for pIC50: read-out: concentration needed for 50% growth inhibition (ID50), Table 3, DU-145. As for the experimental part:
as §2, §3, §4

Assay [7] concerns human prostate cancer cells PC3. Put plainly: MTT assay, survival/growth of cultured human prostate cancer cells PC3. As to conditions: for pEC50: figure legends, survival of cultured PC3 cells, MTT, six days after drug treatment, read-out: ED50 (the source's name); for pIC50: read-out: concentration needed for 50% growth inhibition (ID50), Table 3, PC-3. As for the experimental part:
as §2, §3, §4

Assay [8] deals with human prostate cancer cells LNCAP. Nature of the assay: MTT assay, survival/growth of cultured human prostate cancer cells LNCAP. The conditions noted are these: figure legends, survival of cultured LNCAP cells, six days after drug treatment, read-out: ED50 (the source's name). As for the experimental part: as §2, §3, §4

Take `CCNCCCNCCCNCCCNCC` [BE-333, N1,N11-diethylnorspermine, reference compound]: the pEC50 is 5.43 in assay [1]; 6.05 in assay [2]; 6.52 in assay [3]; 6.52 in assay [4]; 6.64 in assay [5]; 6.92 in assay [6]. The pEC50 in assay [7] was 6.47.
As to `CCNCCCCNCCCCNCCCCNCC` [BE-444, N1,N14-bis(ethyl) homospermine, reference compound], the pEC50 is 7.00 in assay [8]; 6.03 in assay [3]; 6.82 in assay [4]; 7.52 in assay [6]; 6.15 in assay [7].
In the case of `CCNCCCCNCCCCNCCCCNCCCCNCC` [BE-4444, 1,19-bis(ethylamino)-5,10,15-triazanonadecane, reference compound], the pEC50 is below 4.51 in assay [1] (Homo sapiens, 144 h); 6.70 in assay [2] (Homo sapiens, 144 h); 6.85 in assay [8] (Homo sapiens, 144 h); 6.30 in assay [3] (Homo sapiens, HT-29, 144 h); below 4.51 in assay [4] (Homo sapiens, 144 h); 7.15 in assay [6] (Homo sapiens, DU-145, 144 h). For the same molecule, in assay [7] (Homo sapiens, PC-3, 144 h), the pEC50 was 6.22. The pIC50 in assay [1] (Homo sapiens) is below 4.51; in assay [2] (Homo sapiens), 6.70; in assay [3] (Homo sapiens) it was 6.10; in assay [4] (Homo sapiens, Table 3, A549), 6.40; in assay [6] (Homo sapiens), 7.15; in assay [7] (Homo sapiens), 6.27.
Regarding `CCNCCCCNCC1CC1CNCCCCNCC` (stereo not shown) [SL-11093], the pEC50 in assay [1] is 6.18; in assay [8] it was 6.68; in assay [4] it was 6.59; in assay [5] it was 7.15; in assay [6], 7.80; in assay [7], 5.80. For the same molecule, the pIC50 was 6.18 in assay [1]; 7.22 in assay [2]; 6.40 in assay [3]; 6.59 in assay [4] (Table 3, A549); 8.00 in assay [6]; 4.84 in assay [7].
With `CCNCCCCNC/C=C/CNCCCCNCC` [SL-11101], the pEC50 was below 4.51 in assay [1] (Homo sapiens, 144 h); 6.07 in assay [2] (Homo sapiens, 144 h); 5.66 in assay [4] (Homo sapiens, 144 h); 5.77 in assay [5] (Homo sapiens, U-251, 144 h); 6.66 in assay [6] (Homo sapiens, DU-145, 144 h); 5.11 in assay [7] (Homo sapiens, PC-3, 144 h). Further, the pIC50 in assay [1] (Homo sapiens) is below 4.51; in assay [2] (Homo sapiens), 6.07; in assay [3] (Homo sapiens) it was 5.28; in assay [4] (Homo sapiens, Table 3, A549), 6.82; in assay [5] (Homo sapiens, U-251, read-out: concentration needed for 50% growth inhibition (ID50)), 5.77; in assay [6] (Homo sapiens), 6.66. Also, the pIC50 in assay [7] (Homo sapiens) was 5.11.
As for `CCNCCCCNC/C=C\CNCCCCNCC` [SL-11102], the pIC50 in assay [1] is below 4.51; in assay [2], 6.82; in assay [3], 6.14; in assay [5] (read-out: concentration needed for 50% growth inhibition (ID50)), 6.82; in assay [6], 7.57; in assay [7] it was below 4.51. Besides, the pEC50 in assay [2] is 6.82; in assay [4] it was 6.82; in assay [5] it was 6.82; in assay [6], 7.52; in assay [7] it was below 4.51. Besides, in assay [4] (Table 3, A549), the “concentration needed for 50% growth inhibition (ID50)” value was 12400 nM.
For the molecule `CCNC/C=C\CNCCCCNC/C=C\CNCC` [SL-11114], the pEC50 in assay [2] (Homo sapiens, 144 h) is 6.19; in assay [8] (Homo sapiens, 144 h), 5.52; in assay [4] (Homo sapiens, 144 h) it was below 4.51; in assay [6] (Homo sapiens, DU-145, 144 h), 6.89; in assay [7] (Homo sapiens, PC-3, 144 h), 6.15. Further, the pIC50 was 6.19 in assay [2] (Homo sapiens); 5.44 in assay [3] (Homo sapiens); below 4.51 in assay [4] (Homo sapiens, Table 3, A549); 6.87 in assay [6] (Homo sapiens); 6.15 in assay [7] (Homo sapiens).
In the case of `CCNC/C=C\CNCCCCNCCCCNCC` [SL-11118], the pEC50 was 6.60 in assay [2] (Homo sapiens, 144 h); 6.68 in assay [8] (Homo sapiens, 144 h); 6.67 in assay [4] (Homo sapiens, 144 h); 7.30 in assay [6] (Homo sapiens, DU-145, 144 h); 5.78 in assay [7] (Homo sapiens, PC-3, 144 h). The pIC50 in assay [2] (Homo sapiens) was 6.60; in assay [3] (Homo sapiens) it was 6.01; in assay [4] (Homo sapiens, Table 3, A549) it was 6.68; in assay [6] (Homo sapiens), 7.30; in assay [7] (Homo sapiens), 5.78.
As to `CCNC/C=C\CNCCCCNCCCCNCCCCNCC` [SL-11121], the pEC50 is 4.77 in assay [1] (Homo sapiens, 144 h); 6.40 in assay [2] (Homo sapiens, 144 h); 6.85 in assay [8] (Homo sapiens, 144 h); below 4.51 in assay [4] (Homo sapiens, 144 h); 7.10 in assay [6] (Homo sapiens, DU-145, 144 h); 6.28 in assay [7] (Homo sapiens, PC-3, 144 h). In addition, the pIC50 is 4.77 in assay [1] (Homo sapiens); 6.40 in assay [2] (Homo sapiens); 6.10 in assay [3] (Homo sapiens); below 4.51 in assay [4] (Homo sapiens, Table 3, A549); 7.10 in assay [6] (Homo sapiens); 6.28 in assay [7] (Homo sapiens).
Take `CCNC/C=C\CNC/C=C\CNC/C=C\CNC/C=C\CNCC` [SL-11126]: the pEC50 was 6.15 in assay [1] (Homo sapiens, 144 h); 5.96 in assay [2] (Homo sapiens, 144 h); 6.26 in assay [8] (Homo sapiens, 144 h); below 4.51 in assay [4] (Homo sapiens, 144 h); 6.29 in assay [6] (Homo sapiens, DU-145, 144 h); 6.70 in assay [7] (Homo sapiens, PC-3, 144 h). The pIC50 is 6.15 in assay [1] (Homo sapiens); 5.96 in assay [2] (Homo sapiens); 5.82 in assay [3] (Homo sapiens); below 4.51 in assay [4] (Homo sapiens, Table 3, A549); 6.29 in assay [6] (Homo sapiens); 6.70 in assay [7] (Homo sapiens).
On to `CCNC/C=C\CNCCCCNCCCCNC/C=C\CNCC` [SL-11128], for which the pEC50 in assay [2] (Homo sapiens, 144 h) is 5.89; in assay [8] (Homo sapiens, 144 h), 6.52; in assay [6] (Homo sapiens, DU-145, 144 h), 6.85; in assay [7] (Homo sapiens, PC-3, 144 h), 6.30. Also, the pIC50 is 5.90 in assay [2] (Homo sapiens), 5.87 in assay [3] (Homo sapiens), 6.85 in assay [6] (Homo sapiens) and 6.30 in assay [7] (Homo sapiens).
On to `CCNCCCCNCCCCNCCCCNCCCCNCCO` [SL-11141], for which the pEC50 in assay [2] (Homo sapiens, 144 h) is 6.15; in assay [8] (Homo sapiens, 144 h) it was 7.15; in assay [6] (Homo sapiens, DU-145, 144 h), 6.89; in assay [7] (Homo sapiens, PC-3, 144 h) it was below 4.51.
In the case of `CCNCCCCNCCCCNCCCCNCCCCNC/C=C\CNCCCCNCCCCNCCCCNCCCCNCC` [SL-11150], the pEC50 in assay [2] (Homo sapiens, 144 h) was 6.32; in assay [8] (Homo sapiens, 144 h), 6.64; in assay [6] (Homo sapiens, DU-145, 144 h), 6.96.
